Our source for the AC50, IC50 and EC50 values is ChEMBL document CHEMBL1201862, “PubChem BioAssay data set” (2004).

For assay [1], the target named is Dual specificity tyrosine-phosphorylation-regulated kinase 1A (Rattus norvegicus, UniProt Q63470). The format is biochemical, Homo sapiens.
The test system of another assay is Escherichia coli. Put plainly: microbe, parasite or virus in culture.
For another assay, the system named is HEK293. The experiment in a line: cells. In kind it is functional, cell-based. The following applies: Homo sapiens.
Assay [2] has as its target T1, Nuclear receptor subfamily 0 group B member 1 (Homo sapiens, UniProt P51843).
T1 sequence (P51843 whole entry): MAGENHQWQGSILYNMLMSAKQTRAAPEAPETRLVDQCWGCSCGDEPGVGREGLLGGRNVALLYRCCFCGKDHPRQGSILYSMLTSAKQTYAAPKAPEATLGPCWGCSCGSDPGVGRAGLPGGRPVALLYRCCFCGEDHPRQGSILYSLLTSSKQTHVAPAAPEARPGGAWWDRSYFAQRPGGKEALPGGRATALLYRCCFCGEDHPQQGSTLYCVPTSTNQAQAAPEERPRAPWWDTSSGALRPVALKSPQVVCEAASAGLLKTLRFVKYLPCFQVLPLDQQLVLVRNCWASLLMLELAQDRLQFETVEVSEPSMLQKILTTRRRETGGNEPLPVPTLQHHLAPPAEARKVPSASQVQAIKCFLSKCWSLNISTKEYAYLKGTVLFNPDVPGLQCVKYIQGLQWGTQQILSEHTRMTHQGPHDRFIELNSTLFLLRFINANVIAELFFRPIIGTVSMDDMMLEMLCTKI
Put plainly: Luminescence-based cell-based high throughput dose response assay for inhibitors of the orphan nuclear receptor subfamily 0, group B, member 1 (DAX1; NR0B1). [Related pubchem assays (depositor defined):AID504766, AID504790]. The format is functional.

For assay [3], the target named is T2, Sentrin-specific protease 8 (Homo sapiens, UniProt Q96LD8).
T2 sequence (Q96LD8 whole entry): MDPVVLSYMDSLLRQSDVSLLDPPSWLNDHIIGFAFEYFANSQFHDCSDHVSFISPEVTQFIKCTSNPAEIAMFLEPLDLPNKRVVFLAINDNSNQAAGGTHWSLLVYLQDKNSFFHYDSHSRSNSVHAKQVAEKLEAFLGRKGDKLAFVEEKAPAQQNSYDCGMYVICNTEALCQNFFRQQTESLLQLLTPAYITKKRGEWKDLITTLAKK
The experiment in a line: inhibition of sentrin protease 8 – biochemical, luminescence, set 2, SAR follow-up (AID 588601). The format is functional.

Assay [4] deals with T3, Caspase-3 (Homo sapiens, UniProt P42574).
T3 sequence (P42574 whole entry): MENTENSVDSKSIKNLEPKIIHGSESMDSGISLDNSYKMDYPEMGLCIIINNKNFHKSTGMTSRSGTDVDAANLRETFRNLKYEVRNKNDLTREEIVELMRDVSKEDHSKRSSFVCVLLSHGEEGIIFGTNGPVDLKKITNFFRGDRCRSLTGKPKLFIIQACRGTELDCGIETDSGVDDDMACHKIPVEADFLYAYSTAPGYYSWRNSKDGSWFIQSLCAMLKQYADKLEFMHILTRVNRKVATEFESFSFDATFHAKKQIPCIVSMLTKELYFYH
Put plainly: SAR Analysis of small molecule inhibitors of Sentrin-specific proteases (SENPs) using a Caspase-3 Selectivity assay. [Related pubchem assays (depositor defined):AID2540, AID2599, AID434973, AID489001]. The format is functional.

Assay [5] has as its target T4, Sentrin-specific protease 7 (Homo sapiens, UniProt Q9BQF6).
T4 sequence (Q9BQF6 whole entry): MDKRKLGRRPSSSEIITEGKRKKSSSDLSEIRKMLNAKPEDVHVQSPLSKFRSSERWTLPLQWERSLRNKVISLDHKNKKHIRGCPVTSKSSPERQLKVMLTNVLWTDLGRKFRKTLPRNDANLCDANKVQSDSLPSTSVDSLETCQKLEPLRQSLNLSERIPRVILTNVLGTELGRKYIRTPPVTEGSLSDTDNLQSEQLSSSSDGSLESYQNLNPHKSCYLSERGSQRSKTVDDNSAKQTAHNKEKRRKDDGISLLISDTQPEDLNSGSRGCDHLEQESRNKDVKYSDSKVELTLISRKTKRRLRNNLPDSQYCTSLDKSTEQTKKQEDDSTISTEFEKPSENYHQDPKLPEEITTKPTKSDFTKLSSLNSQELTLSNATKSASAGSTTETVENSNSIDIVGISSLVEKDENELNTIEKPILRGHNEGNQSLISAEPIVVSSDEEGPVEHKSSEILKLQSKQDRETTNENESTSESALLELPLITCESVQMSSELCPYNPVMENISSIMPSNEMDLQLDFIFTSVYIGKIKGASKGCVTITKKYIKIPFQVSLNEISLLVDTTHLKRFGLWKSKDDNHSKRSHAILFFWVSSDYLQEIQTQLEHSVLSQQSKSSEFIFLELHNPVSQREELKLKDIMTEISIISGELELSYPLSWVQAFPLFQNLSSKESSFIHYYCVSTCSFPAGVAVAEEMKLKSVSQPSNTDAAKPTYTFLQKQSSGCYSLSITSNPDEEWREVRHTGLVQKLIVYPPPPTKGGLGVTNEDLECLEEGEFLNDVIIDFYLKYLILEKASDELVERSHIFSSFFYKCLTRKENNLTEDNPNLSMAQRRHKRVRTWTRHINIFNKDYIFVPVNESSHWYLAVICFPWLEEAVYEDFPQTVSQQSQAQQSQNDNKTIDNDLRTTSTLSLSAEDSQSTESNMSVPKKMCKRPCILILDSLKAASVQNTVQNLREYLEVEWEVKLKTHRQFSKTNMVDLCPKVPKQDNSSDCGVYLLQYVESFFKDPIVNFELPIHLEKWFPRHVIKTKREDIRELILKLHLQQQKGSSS
Put plainly: inhibition of human SENP7 cleavage activity – biochemical, luminescence, set 2, SAR follow-up (AID 588600). In kind it is functional.

For assay [6], the target named is T5, Sentrin-specific protease 6 (Homo sapiens, UniProt Q9GZR1).
T5 sequence (Q9GZR1 whole entry): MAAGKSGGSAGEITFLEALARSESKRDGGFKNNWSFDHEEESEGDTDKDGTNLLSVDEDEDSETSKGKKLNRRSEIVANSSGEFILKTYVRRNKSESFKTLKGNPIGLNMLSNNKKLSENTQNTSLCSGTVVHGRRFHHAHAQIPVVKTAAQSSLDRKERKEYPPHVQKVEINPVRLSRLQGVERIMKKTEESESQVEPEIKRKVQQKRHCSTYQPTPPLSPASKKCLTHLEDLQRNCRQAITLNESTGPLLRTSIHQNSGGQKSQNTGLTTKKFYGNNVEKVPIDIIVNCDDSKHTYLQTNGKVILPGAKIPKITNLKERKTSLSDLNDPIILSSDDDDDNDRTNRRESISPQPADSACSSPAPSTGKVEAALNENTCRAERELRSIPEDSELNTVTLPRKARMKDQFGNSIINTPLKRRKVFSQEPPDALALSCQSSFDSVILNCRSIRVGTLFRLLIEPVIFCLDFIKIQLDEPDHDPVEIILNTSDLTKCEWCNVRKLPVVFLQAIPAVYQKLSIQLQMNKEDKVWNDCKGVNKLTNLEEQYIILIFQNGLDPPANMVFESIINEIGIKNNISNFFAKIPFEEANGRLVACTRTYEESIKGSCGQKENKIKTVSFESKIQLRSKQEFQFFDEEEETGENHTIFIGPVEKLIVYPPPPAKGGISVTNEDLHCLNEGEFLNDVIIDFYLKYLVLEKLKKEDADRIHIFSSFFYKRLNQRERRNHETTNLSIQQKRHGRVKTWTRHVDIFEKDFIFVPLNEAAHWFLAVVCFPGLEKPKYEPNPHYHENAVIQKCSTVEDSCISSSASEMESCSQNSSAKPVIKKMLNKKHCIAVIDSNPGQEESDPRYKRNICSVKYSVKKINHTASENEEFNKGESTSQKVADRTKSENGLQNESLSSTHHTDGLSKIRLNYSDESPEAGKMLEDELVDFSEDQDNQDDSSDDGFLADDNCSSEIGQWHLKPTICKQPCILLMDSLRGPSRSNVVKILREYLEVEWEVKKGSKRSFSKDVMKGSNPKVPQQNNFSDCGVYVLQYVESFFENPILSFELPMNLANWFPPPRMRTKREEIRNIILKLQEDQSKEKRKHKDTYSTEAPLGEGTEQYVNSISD
The experiment in a line: SAR Analysis of small molecule inhibitors of Sentrin-specific protease 6 (SENP6) using a Luminescent assay. [Related pubchem assays (depositor defined):AID2582, AID2599]. In kind it is functional.

Assay [7] concerns the target T4, Sentrin-specific protease 7. Put plainly: inhibition of human SENP7 cleavage activity – biochemical, luminescence, SAR follow-up (AID 504497). In kind it is functional.
The target in assay [8] is T3, Caspase-3. Put plainly: inhibition of recombinant caspase-3 activity – biochemical, luminescence, set 2, selectivity assay for SENP protease inhibitor project, SAR follow-up (AID 588599). In kind it is functional.
For assay [9], the target named is T2, Sentrin-specific protease 8. Put plainly: inhibition of human SENP8 cleavage activity – biochemical, luminescence, SAR follow-up (AID 504501). The format is functional.
Assay [10] deals with T5, Sentrin-specific protease 6. Put plainly: inhibition of human SENP6 catalytic domain – biochemical, luminescence, set 2, SAR follow-up (AID 588598). The format is functional.
For assay [11], the target named is T6, RNA-binding protein pos-1 (Caenorhabditis elegans, UniProt G5EF15).
T6 sequence (G5EF15 whole entry): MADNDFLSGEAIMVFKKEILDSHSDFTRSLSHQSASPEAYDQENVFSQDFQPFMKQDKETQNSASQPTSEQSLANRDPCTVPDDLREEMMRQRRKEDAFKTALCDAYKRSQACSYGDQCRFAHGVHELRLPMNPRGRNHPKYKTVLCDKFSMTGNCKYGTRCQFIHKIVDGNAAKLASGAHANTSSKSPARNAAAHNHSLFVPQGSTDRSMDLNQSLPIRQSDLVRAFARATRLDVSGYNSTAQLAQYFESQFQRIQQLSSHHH
The experiment in a line: disruptors of C. elegans POS-1 RNA interaction – biochemical, fluorescence polarization, dose response (AID 1964).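 Further: purified POS-1 fused to maltose binding protein made in E. coli; potency of compounds blocking POS-1 binding to fluorescent RNA.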

In assay [12] the target is T7, Zinc finger protein mex-5 (Caenorhabditis elegans, UniProt Q9XUB2).
T7 sequence (Q9XUB2 whole entry): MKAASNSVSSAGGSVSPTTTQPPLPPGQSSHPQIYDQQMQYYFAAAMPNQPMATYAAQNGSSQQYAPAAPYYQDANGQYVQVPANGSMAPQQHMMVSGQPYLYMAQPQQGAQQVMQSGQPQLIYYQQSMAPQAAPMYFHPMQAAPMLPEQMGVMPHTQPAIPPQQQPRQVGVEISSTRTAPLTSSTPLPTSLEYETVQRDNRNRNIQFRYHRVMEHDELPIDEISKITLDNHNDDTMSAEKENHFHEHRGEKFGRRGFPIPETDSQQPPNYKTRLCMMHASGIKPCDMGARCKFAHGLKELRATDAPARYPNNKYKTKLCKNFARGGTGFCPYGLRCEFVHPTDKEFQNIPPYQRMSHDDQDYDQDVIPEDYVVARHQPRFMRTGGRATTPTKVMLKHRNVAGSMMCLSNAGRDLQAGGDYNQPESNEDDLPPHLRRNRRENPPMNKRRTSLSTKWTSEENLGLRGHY
Put plainly: potency of MEX-5 RNA-binding blockers – biochemical, C. elegans, fluorescence polarization, dose response (AID 1960). (Polarisation of emitted light reports the rotation of a fluorescent probe.)

Assay [13] addresses Glucose-6-phosphate 1-dehydrogenase (Homo sapiens, UniProt P11413). The experiment in a line: inhibition of Homo sapiens G6PD, dose series – biochemical, fluorescence, selectivity assay for P. falciparum G6PD inhibitor project, dose response (AID 504792). The format is functional.
The target in assay [14] is Induced myeloid leukemia cell differentiation protein Mcl-1 (Homo sapiens, UniProt Q07820). The format is functional.
Chain of Induced myeloid leukemia cell differentiation protein Mcl-1 (Q07820 whole entry): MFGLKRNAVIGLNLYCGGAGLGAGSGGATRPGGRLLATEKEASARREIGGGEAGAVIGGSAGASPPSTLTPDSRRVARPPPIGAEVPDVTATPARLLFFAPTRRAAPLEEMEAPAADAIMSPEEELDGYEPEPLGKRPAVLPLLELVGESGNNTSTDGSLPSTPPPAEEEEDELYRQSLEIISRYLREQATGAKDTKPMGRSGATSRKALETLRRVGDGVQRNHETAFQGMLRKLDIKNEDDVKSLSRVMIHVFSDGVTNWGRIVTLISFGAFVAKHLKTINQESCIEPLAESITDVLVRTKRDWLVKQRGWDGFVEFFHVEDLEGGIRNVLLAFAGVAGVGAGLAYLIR

Activity calls are given as the source filed them. Where only a bound is given, the exact number is not on record here.

Chain of Glucose-6-phosphate 1-dehydrogenase (P11413 whole entry): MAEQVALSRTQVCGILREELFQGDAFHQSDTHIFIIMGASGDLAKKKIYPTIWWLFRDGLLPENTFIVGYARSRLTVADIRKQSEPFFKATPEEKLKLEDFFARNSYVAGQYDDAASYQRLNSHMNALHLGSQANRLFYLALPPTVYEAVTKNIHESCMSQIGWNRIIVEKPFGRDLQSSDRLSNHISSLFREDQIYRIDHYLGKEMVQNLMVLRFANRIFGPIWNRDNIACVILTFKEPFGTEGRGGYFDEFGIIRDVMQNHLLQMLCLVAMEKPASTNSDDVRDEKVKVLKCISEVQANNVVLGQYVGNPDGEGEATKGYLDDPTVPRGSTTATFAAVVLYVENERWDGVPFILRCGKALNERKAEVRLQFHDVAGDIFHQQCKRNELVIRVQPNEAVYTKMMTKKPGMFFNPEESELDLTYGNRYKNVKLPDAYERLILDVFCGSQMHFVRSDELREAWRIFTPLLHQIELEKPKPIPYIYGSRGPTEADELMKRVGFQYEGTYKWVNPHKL

As for `Cn1c(C(=O)NC2CC2)cc2c(=O)n(C)c3ccccc3c21`, the concentration at half-maximal activity (AC50) (as a rule, the midpoint of the concentration-response curve, whichever way the signal moves) in [1] was 15.5 µM (active).

Regarding `COc1ccc(S(=O)(=O)NCc2ccco2)c2ccccc12`, in the assay on Escherichia coli, the half-maximal activity concentration (AC50) was 28.5 µM (active).

For `Oc1ccc(-c2nc3ccccc3nc2-c2ccc(O)cc2O)c(O)c1`, the AC50 in assay [1] is 3.12 µM (active).

For `COc1ccccc1-c1nnc(-c2ccc(C)cc2)o1`, the IC50 (in the assay on HEK293; in [2]) was > 67.5 µM (inactive) each time.

For the compound `O=C(Nc1nc2ccccc2s1)c1ccsc1`, the IC50 – broadly, the concentration that gives 50% inhibition – in assay [3] is 9.92 µM (active); at Caspase-3 [4], 1.1 µM (active); in [5], 10.3 µM (active); in [6] it was 1.4 µM (active); in assay [7], 1.1 µM (active); at Caspase-3 [8], 10.4 µM (active). Moreover, the IC50 was 1.4 µM (active) in assay [9] and 10.6 µM (active) in [10].

As to `O=C(Nc1nc2ccccc2s1)c1cccc(S(=O)(=O)N2CCN(c3ccccc3)CC2)c1`, the IC50 (in assay [3]; in assay [5]; on Caspase-3 [8]; in assay [10]) was > 99 µM (inactive) each time.

`Cc1ccccc1C(=O)N1CCC(C(=O)Nc2ccccc2Cl)CC1`: the AC50 in the assay on Escherichia coli was 27.8 µM (active).

For the compound `COc1cc(O)c(C(=O)O)c(-c2cc(O)c(O)cc2C)c1` [ALTENUSIN], the values for the EC50 in assay [11] and in assay [12] were 31 µM (active) and > 300 µM (inconclusive), respectively. Further, the IC50 in assay [13] is 31 µM (inactive); in assay [14] it was 4.15 µM (active).
